According to US20110269130A1, “Antibiotice Susceptibility Profiling Methods” (priority 2008, published 2011):

Legend:
[1] = tested on: S. aureus ATCC 29213 (wild type); experiment: PNA-FISH antibiotic susceptibility test, wild type S. aureus; format: cell-based; details: OX 2 μg/mL and higher (2, 4, 8 μg), 6 hr incubation in Phoenix AST broth, 10^5 CFU/ml, PNA-FISH fluorescence imaging
Protocol: (§1) S. aureus ATCC 29213 and S. aureus POS 3663 cultures with a concentration of 10^5CFU/ml were divided into six 400 μl subsamples and incubated with or without OX antibiotic for 0 or 6 hours in Phoenix AST broth as indicated in the following table.
(§2) Each subsample was placed into separate 1.5 mL microcentrifuge tubes following incubation. The tubes were centrifuged at 5000 rpm for 3 minutes and the supernatants were discarded. The bacteria were resuspended in […] of 80% ethanol and incubated for 5 minutes at room temperature and then centrifuged at 5000 rpm for 3 minutes. The supernatants were discarded and the bacteria were resuspended in one drop (approximately 25 μL) of the S. aureus-specific PNA-probe solution from the PNA FISH Kit and incubated for 1.5 hours at 55° C. After hybridization, 500 μL of the washing solution from the PNA FISH Kit was added and the tubes were incubated at 55° C. for 30 minutes. The tubes were centrifuged 10,000 rpm for 3 minutes and the supernatants were discarded. The bacterial pellets were resuspended in 150 μL PBS, and 40 μL of each subsample was transferred onto a 0.2 μm pore-size polycarbonate membrane using a flow-through device. The membrane was then transferred to a glass slide and covered with a cover slip. The membrane was then imaged using a fluorescence microscope.

[2] = tested on: S. aureus POS 3663 (MRSA); experiment: PNA-FISH antibiotic susceptibility test, MRSA; format: cell-based; details: OX at concentrations as high as 8 μg/mL, 6 hr incubation in Phoenix AST broth, 10^5 CFU/ml, PNA-FISH fluorescence imaging
Protocol: as §1, §2

`Cc1onc(-c2ccccc2)c1C(=O)N[C@@H]1C(=O)N2[C@@H]1SC(C)(C)[C@@H]2C(=O)O` [oxacillin] was tested, and the “effect of oxacillin (OX) on the growth of wild type S. aureus ATCC 29213” value [1] was “killed the bacteria”, the “effect of oxacillin (OX) on the growth of wild type S. aureus ATCC 29213” value ([1]; listed as OX) was “most of the wild type S. aureus were killed” and the “effect of oxacillin (OX) on the growth of resistant S. aureus POS 3663” value [2] was “had no effect on the growth”. For the same compound, the “effect of oxacillin (OX) on the growth of resistant S. aureus POS 3663” value ([2]; listed as OX) was “continues to grow”.
